Like-named read-outs stand apart in the source and are kept apart here.
What was measured:
human NR1/NR2A [1] = target: human NR1/NR2A (Homo sapiens (Human), UniProt Q05586+Q12879); assay: NR2A antagonist activity, Fluo-4 calcium influx assay in HEK293 cells; assay type: cell-based
Description: (§1) Activation of the NR2A or NR2B subtype of NMDA receptor with glutamate as an agonist and glycine co-agonist on these cells results in calcium influx, which can be monitored with fluorescent indicator Fluo-4.
(§2) For experiments, the cells were seeded onto poly-D-lysine-coated 96-well black plates with clear bottom (Corning) at a density of ˜50,000 cells/well. After overnight culture, the growth medium was removed from the wells and the cells were incubated at 37° C. for 60 min in Hanks buffer containing 4 μM fluo-4-AM (Invitrogen) and 0.1% bovine serum albumin (BSA). After dye-loading, the cells were washed three times with Hanks buffer and incubated for 10 min at room temperature with various concentrations of test compounds prepared in Hanks buffer with 0.1% BSA. The cell plates were placed onto FDSS μCell fluorescence reader (Hamamatsu). After 20 sec reading of background fluorescence, agonist glutamate at final 100 μM and co-agonist glycine at final 50 μM were added to the cells to activate the receptor, and the resulting fluorescence changes were recorded and quantified. Based on the changes in fluorescence intensity, the pharmacological effect of test compounds were analyzed and the IC50 values derived from a non-linear least squares fitting of the concentration-dependent response to a standard logistic equation using Prism (Graphpad, Inc): Amplitude=Max Amplitude/(1+([…])^n).

human NR1/NR2B = human NR1/NR2B (Homo sapiens (Human), UniProt Q05586+Q13224); assay: NR2B antagonist activity, Fluo-4 calcium influx assay in HEK293 cells; assay type: cell-based; settings: glutamate 100 μM, glycine 50 μM
Description: as §1, §2

hERG channel = hERG channel (Homo sapiens (Human), UniProt Q12809); assay: hERG channel inhibition, whole cell patch clamp in HEK293 cells; settings: for hERG @ 10 μM: inhibition at 10 μM
CYP2D6 = CYP2D6 (Homo sapiens (Human), UniProt P10635); assay: CYP P450 enzyme inhibition in pooled human liver microsome; settings: dextromethorphan 5 μM; for CYP2D6 @ 10 μM: inhibition at 10 μM, pooled HLM; for IC50: CYP2D6 IC50, pooled HLM
Description: Those CYP isoforms and their corresponding probe substrates are as follows: CYP1A2 (phenacetin, 30 μM), CYP2C9 (tolutamide, 100 μM), CYP2C19 (S-mephenytoin, 40 μM), CYP2D6 (dextromethorphan, 5 μM) and CYP3A4 (midazolam, 1 μM). All probe substrates were used at concentrations near or below their Kms. For experiment, a reaction mixture of test compound at 10 uM or in serial dilution, CYP probe substrate described above and 0.2 mg/mL pooled HLM in phosphate buffer, pH 7.4 in a final volume of 200 μL was pre-incubated at 37° C. for 10 minutes in triplicate. The reaction was initiated by addition of NADPH at final concentration of 1 mM. The reaction was terminated after 10 minutes (CYP1A2, CYP2D6 and CYP3A4) or 30 minutes (CYP2C9 and CYP2C19) by addition of 100 μL ice-cold acetonitrile with internal standard (IS). The samples were then centrifuged at 13,000 rpm and the supernatants were injected to LC-MS/MS (Agilent Technologies) to quantify the concentration of the specific metabolites of the probe substrates formed by individual CYP450 isoforms. The inhibition ratio is calculated as: (Mt−M0)/Mwater×100% in which Mt and M0 represent the concentrations of the specific probe substrate metabolite, which was formed by individual CYP450 isoform, at the beginning and end of the reaction in the presence of test compound; while Mwater represents the concentration of the specific metabolite at the end of the reaction in the absence of test compound. Test compound concentration-dependent response data experiments performed in triplicate.

human NR1/NR2A [2] = target: human NR1/NR2A (Homo sapiens (Human), UniProt Q12879); assay: NR2A antagonist activity, Fluo-4 calcium influx assay in HEK293 cells; assay type: cell-based
Description: as §1, §2

[3] = hNR2B IC50, HEK293 cells expressing NR1/NR2B
[4] = HEK293 cells expressing NR1/NR2A, glutamate 100 μM, glycine 50 μM, read-out: hNR2A IC50
[5] = HEK293 cells expressing NR1/NR2B, read-out: hNR2B IC50
[6] = read-out: hNR2A IC50; HEK293 cells expressing NR1/NR2A; glutamate 100 μM, glycine 50 μM

Sequence of human NR1/NR2A (Homo sapiens (Human), UniProt Q05586+Q12879) (Q12879 23-1464, other chains not shown): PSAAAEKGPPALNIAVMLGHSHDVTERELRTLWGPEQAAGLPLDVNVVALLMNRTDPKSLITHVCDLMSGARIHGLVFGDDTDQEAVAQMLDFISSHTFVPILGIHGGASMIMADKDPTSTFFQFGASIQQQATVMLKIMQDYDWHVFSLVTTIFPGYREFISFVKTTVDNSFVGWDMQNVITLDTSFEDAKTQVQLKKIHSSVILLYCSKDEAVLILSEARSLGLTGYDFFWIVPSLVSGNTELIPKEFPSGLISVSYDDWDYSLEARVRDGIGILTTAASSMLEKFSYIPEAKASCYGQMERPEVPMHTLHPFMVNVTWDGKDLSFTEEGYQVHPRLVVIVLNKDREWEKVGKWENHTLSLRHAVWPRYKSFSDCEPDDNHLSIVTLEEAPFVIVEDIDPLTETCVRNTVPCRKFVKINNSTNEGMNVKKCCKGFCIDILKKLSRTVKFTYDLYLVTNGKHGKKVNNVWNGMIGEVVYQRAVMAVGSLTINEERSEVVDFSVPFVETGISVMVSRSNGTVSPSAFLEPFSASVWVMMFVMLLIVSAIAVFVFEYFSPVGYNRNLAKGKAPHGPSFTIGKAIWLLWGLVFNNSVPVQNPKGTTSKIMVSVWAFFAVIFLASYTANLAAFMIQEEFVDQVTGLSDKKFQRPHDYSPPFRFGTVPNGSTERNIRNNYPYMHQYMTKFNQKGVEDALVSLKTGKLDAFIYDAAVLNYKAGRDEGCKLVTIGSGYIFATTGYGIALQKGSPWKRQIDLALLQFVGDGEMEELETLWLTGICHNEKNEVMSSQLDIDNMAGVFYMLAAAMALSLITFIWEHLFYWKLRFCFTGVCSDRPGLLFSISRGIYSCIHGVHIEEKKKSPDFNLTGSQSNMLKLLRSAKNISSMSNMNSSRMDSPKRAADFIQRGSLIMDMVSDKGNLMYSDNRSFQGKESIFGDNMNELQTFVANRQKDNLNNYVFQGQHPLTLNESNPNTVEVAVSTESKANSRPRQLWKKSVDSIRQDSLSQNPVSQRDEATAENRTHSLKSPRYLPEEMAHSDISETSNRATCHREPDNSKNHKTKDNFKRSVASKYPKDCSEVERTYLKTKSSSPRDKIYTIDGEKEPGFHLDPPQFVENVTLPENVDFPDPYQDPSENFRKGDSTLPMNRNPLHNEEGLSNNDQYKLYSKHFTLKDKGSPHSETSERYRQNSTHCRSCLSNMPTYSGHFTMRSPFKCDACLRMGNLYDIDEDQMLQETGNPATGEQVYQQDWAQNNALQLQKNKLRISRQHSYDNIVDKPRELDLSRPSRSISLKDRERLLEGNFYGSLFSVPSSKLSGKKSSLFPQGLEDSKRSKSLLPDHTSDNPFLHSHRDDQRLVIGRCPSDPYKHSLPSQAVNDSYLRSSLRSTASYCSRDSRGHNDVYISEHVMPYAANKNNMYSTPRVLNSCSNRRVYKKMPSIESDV
Sequence of human NR1/NR2A (Homo sapiens (Human), UniProt Q12879) (Q12879 23-1464, other chains not shown): as above
Sequence of human NR1/NR2B (Q13224 27-1484, other chains not shown): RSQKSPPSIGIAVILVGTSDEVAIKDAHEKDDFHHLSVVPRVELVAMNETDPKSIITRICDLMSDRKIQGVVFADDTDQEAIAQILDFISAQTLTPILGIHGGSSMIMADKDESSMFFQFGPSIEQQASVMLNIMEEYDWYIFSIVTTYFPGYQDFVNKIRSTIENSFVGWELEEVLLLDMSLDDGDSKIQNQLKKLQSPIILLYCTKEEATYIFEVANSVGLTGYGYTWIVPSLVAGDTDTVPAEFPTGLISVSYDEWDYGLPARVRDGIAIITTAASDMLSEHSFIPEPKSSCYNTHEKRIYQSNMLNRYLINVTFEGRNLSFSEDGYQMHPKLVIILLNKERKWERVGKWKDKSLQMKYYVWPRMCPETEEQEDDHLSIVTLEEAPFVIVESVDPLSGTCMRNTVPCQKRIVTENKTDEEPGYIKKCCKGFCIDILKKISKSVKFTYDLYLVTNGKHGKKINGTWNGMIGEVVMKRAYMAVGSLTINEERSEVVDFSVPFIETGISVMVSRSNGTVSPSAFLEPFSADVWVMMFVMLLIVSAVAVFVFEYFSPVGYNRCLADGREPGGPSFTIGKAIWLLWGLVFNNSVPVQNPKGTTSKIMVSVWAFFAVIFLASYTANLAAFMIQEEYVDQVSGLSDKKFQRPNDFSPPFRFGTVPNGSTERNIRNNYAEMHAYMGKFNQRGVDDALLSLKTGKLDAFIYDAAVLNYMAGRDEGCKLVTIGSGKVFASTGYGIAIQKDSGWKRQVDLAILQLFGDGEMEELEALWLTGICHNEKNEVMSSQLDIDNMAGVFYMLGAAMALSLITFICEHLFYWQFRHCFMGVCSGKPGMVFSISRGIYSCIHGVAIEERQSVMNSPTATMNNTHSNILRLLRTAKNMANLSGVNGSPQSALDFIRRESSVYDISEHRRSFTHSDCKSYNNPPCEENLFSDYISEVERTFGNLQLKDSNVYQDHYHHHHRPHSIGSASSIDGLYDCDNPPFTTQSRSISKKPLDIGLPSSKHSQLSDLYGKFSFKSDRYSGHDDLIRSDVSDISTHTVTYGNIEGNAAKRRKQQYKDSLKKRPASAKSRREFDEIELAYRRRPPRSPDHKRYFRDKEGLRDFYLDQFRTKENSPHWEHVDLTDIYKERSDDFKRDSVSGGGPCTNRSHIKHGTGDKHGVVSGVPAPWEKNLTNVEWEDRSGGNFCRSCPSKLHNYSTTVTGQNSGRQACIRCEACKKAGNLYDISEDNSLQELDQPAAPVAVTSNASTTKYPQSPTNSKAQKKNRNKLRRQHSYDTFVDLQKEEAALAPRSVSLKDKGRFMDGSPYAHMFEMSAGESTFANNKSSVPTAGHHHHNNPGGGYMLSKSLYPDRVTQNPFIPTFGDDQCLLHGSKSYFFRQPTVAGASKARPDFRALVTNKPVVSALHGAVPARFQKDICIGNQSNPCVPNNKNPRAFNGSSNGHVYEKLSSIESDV
Sequence of CYP2D6 (P10635 whole entry): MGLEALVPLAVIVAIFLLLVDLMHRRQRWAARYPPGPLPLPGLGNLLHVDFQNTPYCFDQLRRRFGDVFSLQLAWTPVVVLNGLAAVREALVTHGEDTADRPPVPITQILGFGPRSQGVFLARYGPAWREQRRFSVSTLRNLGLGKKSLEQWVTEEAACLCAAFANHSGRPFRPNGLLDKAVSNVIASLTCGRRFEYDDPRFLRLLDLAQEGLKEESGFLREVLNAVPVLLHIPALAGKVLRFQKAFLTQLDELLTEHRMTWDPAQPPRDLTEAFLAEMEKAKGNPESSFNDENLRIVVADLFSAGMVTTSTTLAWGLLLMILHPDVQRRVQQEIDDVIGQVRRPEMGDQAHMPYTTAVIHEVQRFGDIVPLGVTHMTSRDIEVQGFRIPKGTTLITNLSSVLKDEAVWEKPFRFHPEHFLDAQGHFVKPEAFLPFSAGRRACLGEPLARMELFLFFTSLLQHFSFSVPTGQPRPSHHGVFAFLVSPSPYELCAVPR

| Compound | IC50 (human NR1/NR2A [1]) | IC50 (human NR1/NR2B; [3]) | CYP2D6 @ 10 μM (CYP2D6) | hERG @ 10 μM (hERG channel) | also measured |
| --- | --- | --- | --- | --- | --- |
| FC1(F)CN(CCc2ccccc2)CCC1Nc1ncnc2[nH]ncc12 (racemic) [C-1.1, (±)-N-(3,3-difluoro-1-phenethylpiperidin-4-yl)-1H-pyrazolo[3,4-d]pyrimidin-4-amine] | > 10 µM | 0.0988 µM |  |  | IC50 (hERG channel): 71 µM |
| Fc1ccc(CCN2CCC(Nc3ncnc4[nH]ncc34)C(F)(F)C2)cc1 (racemic) [C-1.2, (±)-N-(3,3-difluoro-1-(4-fluorophenethyl)piperidin-4-yl)-1H-pyrazolo[3,4-d]-pyrimidin-4-amine] | > 10 µM | 0.0683 µM | 45.1% |  | IC50 (hERG channel): 16.3 µM |
| Cc1n[nH]c2ncnc(NC3CCN(CCc4ccc(C(F)(F)F)cc4)CC3(F)F)c12 (racemic) [C-1.34, (±)-N-(3,3-difluoro-1-(4-(trifluoromethyl)phenethyl)piperidin-4-yl)-3-methyl-1H-pyrazolo[3,4-d]pyrimidin-4-amine] | > 10 µM |  |  | 68% |  |
| Fc1ccc(F)c(CCN2CCC(Nc3ncnc4[nH]ncc34)C(F)(F)C2)c1 (racemic) [C-1.35, (±)-N-(1-(2,5-difluorophenethyl)-3,3-difluoropiperidin-4-yl)-1H-pyrazolo[3,4-d]-pyrimidin-4-amine] | > 10 µM | 0.329 µM |  | 17% |  |
| FC(F)(F)c1cccc(CCN2CCC(Nc3ncnc4[nH]ncc34)C(F)(F)C2)c1 (racemic) [C-1.36] | > 10 µM |  | 27.9% | 56% |  |
| FC(F)(F)c1ccc(CCN2CCC(Nc3ncnc4[nH]ccc34)C(F)(F)C2)cc1 (racemic) [C-2.5, (±)-N-(3,3-difluoro-1-(4-(trifluoromethyl)phenethyl)piperidin-4-yl)-7H-pyrrolo-[2,3-d]pyrimidin-4-amine] |  |  |  | 60% | IC50 (human NR1/NR2A [1]; [4]): > 10 µM; IC50 (human NR1/NR2B; [5]): 0.105 µM |
| Cc1ccc(CCN2CCC(Nc3ncnc4[nH]ncc34)C(F)(F)C2)cn1 (racemic) [C-3.4, (±)-N-(3,3-difluoro-1-(2-(6-methylpyridin-3-yl)ethyl)piperidin-4-yl)-1H-pyrazolo[3,4-d]pyrimidin-4-amine] | > 10 µM | 2.27 µM |  | 18% |  |
| FC(F)(F)c1ccc(CCN2CCC(Nc3ncnc4[nH]ncc34)C(F)(F)C2)cn1 (racemic) [C-3.5, (±)-N-(3,3-difluoro-1-(2-(6-(trifluoromethyl)pyridin-3-yl)ethyl)piperidin-4-yl)-1H-pyrazolo[3,4-d]pyrimidin-4-amine] |  |  |  | 23% | IC50 (human NR1/NR2A [1]; [4]): > 10 µM; IC50 (human NR1/NR2B; [5]): 0.822 µM |
| FC(F)(F)c1ccc(CCN2CCC(Nc3ncnc4[nH]ccc34)C(F)(F)C2)cn1 (racemic) [C-4.5, (±)-N-(3,3-difluoro-1-(2-(6-(trifluoromethyl)pyridin-3-yl)ethyl)piperidin-4-yl)-7H-pyrrolo[2,3-d]pyrimidin-4-amine] |  |  |  | 24% | IC50 (human NR1/NR2A [1]; [4]): > 10 µM; IC50 (human NR1/NR2B; [5]): 1.74 µM |
| FC1(F)CN(CCc2ccc(Cl)cc2)CCC1Nc1ncnc2[nH]ncc12 (single isomer, unassigned) [E1-1.3, (R*)-N-(1-(4-chlorophenethyl)-3,3-difluoropiperidin-4-yl)-1H-pyrazolo[3,4-d]-pyrimidin-4-amine] | > 10 µM | 0.025 µM | 21.5% | 58% |  |
| Cc1ccc(CCN2CCC(Nc3ncnc4[nH]ncc34)C(F)(F)C2)cc1 (single isomer, unassigned) [E1-1.4, (R*)-N-(3,3-difluoro-1-(4-methylphenethyl)piperidin-4-yl)-1H-pyrazolo[3,4-d]-pyrimidin-4-amine] | > 10 µM | 0.0185 µM |  |  |  |
| FC(F)c1ccc(CCN2CCC(Nc3ncnc4[nH]ncc34)C(F)(F)C2)cc1 (single isomer, unassigned) [E1-1.6, (R*)-N-(1-(4-(difluoromethyl)phenethyl)-3,3-difluoropiperidin-4-yl)-1H-pyrazolo-[3,4-d]pyrimidin-4-amine] | > 10 µM |  | 24.4% | 63% | IC50 (hERG channel; hERG IC50): 3.5 µM |
| FCc1ccc(CCN2CCC(Nc3ncnc4[nH]ncc34)C(F)(F)C2)cc1 (single isomer, unassigned) [E1-1.7, (R*)-N-(3,3-difluoro-1-(4-(fluoromethyl)phenethyl)piperidin-4-yl)-1H-pyrazolo[3,4-d]-pyrimidin-4-amine] | > 10 µM | 0.0224 µM | 23.2% | 36% |  |
| FC(F)(F)Oc1ccc(CCN2CCC(Nc3ncnc4[nH]ncc34)C(F)(F)C2)cc1 (single isomer, unassigned) [E1-1.11, (R*)-N-(3,3-difluoro-1-(4-(trifluoromethoxy)phenethyl)piperidin-4-yl)-1H-pyrazolo[3,4-d]pyrimidin-4-amine] | > 10 µM |  |  |  |  |
| FC(F)Oc1ccc(CCN2CCC(Nc3ncnc4[nH]ncc34)C(F)(F)C2)cc1 (single isomer, unassigned) [E1-1.12, (R*)-N-(1-(4-(difluoromethoxy)phenethyl)-3,3-difluoropiperidin-4-yl)-1H-pyrazolo[3,4-d]pyrimidin-4-amine] | > 10 µM | 0.0838 µM |  | 79% |  |
| Fc1cc(Cl)ccc1CCN1CCC(Nc2ncnc3[nH]ncc23)C(F)(F)C1 (single isomer, unassigned) [E1-1.16, (R*)-N-(1-(4-chloro-2-fluorophenethyl)-3,3-difluoropiperidin-4-yl)-1H-pyrazolo-[3,4-d]pyrimidin-4-amine] | > 10 µM | 0.0279 µM | 23.2% | 47% |  |
| FC1(F)CN(CCc2ccc(Cl)cc2)CCC1Nc1ncnc2[nH]ncc12 (single isomer, unassigned) [E2-1.3, (S*)-N-(1-(4-chlorophenethyl)-3,3-difluoropiperidin-4-yl)-1H-pyrazolo[3,4-d]pyrimidin-4-amine] |  | 0.0317 µM | 27.6% | 64% | IC50 (human NR1/NR2A [2]; [6]): > 10 µM |
| Cc1ccc(CCN2CCC(Nc3ncnc4[nH]ncc34)C(F)(F)C2)cc1 (single isomer, unassigned) [E2-1.4, (S*)-N-(3,3-difluoro-1-(4-methylphenethyl)piperidin-4-yl)-1H-pyrazolo[3,4-d]-pyrimidin-4-amine] |  | 0.0219 µM |  |  | IC50 (human NR1/NR2A [2]; [6]): > 10 µM |
| FC(F)c1ccc(CCN2CCC(Nc3ncnc4[nH]ncc34)C(F)(F)C2)cc1 (single isomer, unassigned) [E2-1.6, (S*)-N-(1-(4-(difluoromethyl)phenethyl)-3,3-difluoropiperidin-4-yl)-1H-pyrazolo-[3,4-d]-pyrimidin-4-amine] |  |  | 37.1% | 70% | IC50 (human NR1/NR2A [2]; [6]): > 10 µM |
| FCc1ccc(CCN2CCC(Nc3ncnc4[nH]ncc34)C(F)(F)C2)cc1 (single isomer, unassigned) [E2-1.7, (S*)-N-(3,3-difluoro-1-(4-(fluoromethyl)phenethyl)piperidin-4-yl)-1H-pyrazolo-[3,4-d]-pyrimidin-4-amine] |  | 0.0381 µM |  | 49% | IC50 (human NR1/NR2A [2]; [6]): > 10 µM |
| Fc1cc(Cl)ccc1CCN1CCC(Nc2ncnc3[nH]ncc23)C(F)(F)C1 (single isomer, unassigned) [E2-1.16, (S*)-N-(1-(4-chloro-2-fluorophenethyl)-3,3-difluoropiperidin-4-yl)-1H-pyrazolo-[3,4-d]pyrimidin-4-amine] |  | 0.0619 µM |  | 64% | IC50 (human NR1/NR2A [2]; [6]): > 10 µM |
| FC(F)(F)c1ccc(CCN2CCC(Nc3ncnc4[nH]ncc34)C(F)(F)C2)cc1 (single isomer, unassigned; (+)) [E1-1.5, (+)-(R*)-N-(3,3-difluoro-1-(4-(trifluoromethyl)phenethyl)piperidin-4-yl)-1H-pyrazolo[3,4-d]pyrimidin-4-amine] | > 10 µM |  | 27.6% |  | IC50 (hERG channel; hERG IC50): 9.8 µM; IC50 (CYP2D6): 34.1 µM |
| FC(F)(F)c1ccc(CCN2CCC(Nc3ncnc4[nH]ncc34)C(F)(F)C2)cc1 (single isomer, unassigned; (-)) [E2-1.5, (−)-(S*)-N-(3,3-difluoro-1-(4-(trifluoromethyl)phenethyl)piperidin-4-yl)-1H-pyrazolo[3,4-d]pyrimidin-4-amine] |  |  | 37.9% |  | IC50 (human NR1/NR2A [2]; [6]): > 10 µM; IC50 (hERG channel; hERG IC50): 7.6 µM; IC50 (CYP2D6): 15.2 µM |
| FC(F)(F)c1ccc(C(F)(F)CN2CCC(Nc3ncnc4[nH]ncc34)CC2)cc1 [LX-1, reference compound] |  |  | 93% |  |  |
| (±)-N-(1-(3,4-difluorophenethyl)-3,3-difluoropiperidin-4-yl)-1H-pyrazolo-[3,4-d]-pyrimidin-4-amine [C-1.15] |  |  |  | 37% | IC50 (human NR1/NR2A [2]; HEK293 cells expressing NR1/NR2A; glutamate 100 μM, glycine 50 μM; read-out: hNR2A IC50): > 10 µM; IC50 (human NR1/NR2B; [5]): 0.0789 µM |

— patent US10221182B2, “3,3-difluoro-piperidine derivatives as NR2B NMDA receptor antagonists” (Rugen Holdings (Cayman) Limited, priority 2015, dated 2019)
